Legend:
[1] = Selectivity is the ratio of mean EC50 value against […] cells to that of EC50 value against Plasmodium falciparum; type: functional
FM3A = experiment: In vitro cytotoxic activity against mouse mammary tumor FM3A cells; type: functional, cell-based
Plasmodium falciparum = experiment: In vitro antimalarial activity against chloroquine-sensitive Plasmodium falciparum FCR3; type: functional, organism-based

- EC50 (Plasmodium falciparum): 0.11 µM
SMILES: C=C[C@H]1CN2CC[C@H]1C[C@H]2[C@H](O)c1ccnc2ccc(OC)cc12 [QUININE]
- Selectivity [1]: 910
- EC50 (FM3A): 100 µM

Source: ChEMBL document CHEMBL1133247, “Synthesis of novel ferrocenyl sugars and their antimalarial activities” (Bioorg Med Chem Lett, 2000)
